Test results reported in PubChem BioAssay AID1259407 (Chemical Carcinogenesis Research Information System (CCRIS), 2018).
Calls of active or inactive are those of the source. The rule behind the calls is not given here.

Tested on: CCRIS mutagenicity, Ames/micronucleus/aberration tests
Assay: CCRIS mutagenicity studies
[1] = Test System: AMES SALMONELLA TYPHIMURIUM, Strain/Indicator: TA98, Metabolic Activation: NONE, Method: PREINCUBATION
[2] = Test System: AMES SALMONELLA TYPHIMURIUM, Strain/Indicator: TA98, Metabolic Activation: NONE, Method: STANDARD PLATE
[3] = Test System: AMES SALMONELLA TYPHIMURIUM, Strain/Indicator: TA100, Metabolic Activation: NONE, Method: PREINCUBATION
[4] = Test System: AMES SALMONELLA TYPHIMURIUM, Strain/Indicator: TA100, Metabolic Activation: NONE, Method: STANDARD PLATE
[5] = Test System: AMES SALMONELLA TYPHIMURIUM, Strain/Indicator: TA1535, Metabolic Activation: NONE, Method: STANDARD PLATE

With `CCCCCCCC/C=C\CCCCCCCC(=O)O` the mutagenic call (Test System: AMES SALMONELLA TYPHIMURIUM, Strain/Indicator: TA97, Metabolic Activation: HAMSTER, LIVER, S-9, AROCLOR 1254 (10 OR 30%), Method: PREINCUBATION) was “inactive; negative”, the mutagenic call (Test System: AMES SALMONELLA TYPHIMURIUM, Strain/Indicator: TA97, Metabolic Activation: NONE, Method: PREINCUBATION) was “inactive; negative” and the mutagenic call (Test System: AMES SALMONELLA TYPHIMURIUM, Strain/Indicator: TA97, Metabolic Activation: RAT, LIVER, S-9, AROCLOR 1254 (10 OR 30%), Method: PREINCUBATION) was “inactive; negative”. The mutagenic call (Test System: AMES SALMONELLA TYPHIMURIUM, Strain/Indicator: TA98, Metabolic Activation: HAMSTER, LIVER, S-9, AROCLOR 1254 (10 OR 30%), Method: PREINCUBATION) was “inactive; negative”, the mutagenic call [1] was “inactive; negative” and the mutagenic call [2] was “inactive; negative”. For the same compound, the mutagenic call (Test System: AMES SALMONELLA TYPHIMURIUM, Strain/Indicator: TA98, Metabolic Activation: RAT, LIVER, S-9, AROCLOR 1254 (10 OR 30%), Method: PREINCUBATION) was “inactive; negative”, the mutagenic call (Test System: AMES SALMONELLA TYPHIMURIUM, Strain/Indicator: TA98, Metabolic Activation: RAT, LIVER, S-9, KC 500, Method: PREINCUBATION) was “inactive; negative” and the mutagenic call (Test System: AMES SALMONELLA TYPHIMURIUM, Strain/Indicator: TA98, Metabolic Activation: S-9, PHENOBARBITAL, Method: STANDARD PLATE) was “inactive; negative”. For the same compound, the mutagenic call (Test System: AMES SALMONELLA TYPHIMURIUM, Strain/Indicator: TA100, Metabolic Activation: HAMSTER, LIVER, S-9, AROCLOR 1254 (10 OR 30%), Method: PREINCUBATION) was “inactive; negative”, the mutagenic call [3] was “inactive; negative” and the mutagenic call [4] was “inactive; negative”. The mutagenic call (Test System: AMES SALMONELLA TYPHIMURIUM, Strain/Indicator: TA100, Metabolic Activation: RAT, LIVER, S-9, AROCLOR 1254 (10 OR 30%), Method: PREINCUBATION) was “inactive; negative”, the mutagenic call (Test System: AMES SALMONELLA TYPHIMURIUM, Strain/Indicator: TA100, Metabolic Activation: RAT, LIVER, S-9, KC 500, Method: PREINCUBATION) was “inactive; negative” and the mutagenic call (Test System: AMES SALMONELLA TYPHIMURIUM, Strain/Indicator: TA100, Metabolic Activation: S-9, PHENOBARBITAL, Method: STANDARD PLATE) was “inactive; negative”. The mutagenic call (Test System: AMES SALMONELLA TYPHIMURIUM, Strain/Indicator: TA1535, Metabolic Activation: HAMSTER, LIVER, S-9, AROCLOR 1254 (10 OR 30%), Method: PREINCUBATION) was “inactive; negative”, the mutagenic call (Test System: AMES SALMONELLA TYPHIMURIUM, Strain/Indicator: TA1535, Metabolic Activation: NONE, Method: PREINCUBATION) was “inactive; negative” and the mutagenic call [5] was “inactive; negative”. For the same compound, the mutagenic call (Test System: AMES SALMONELLA TYPHIMURIUM, Strain/Indicator: TA1535, Metabolic Activation: RAT, LIVER, S-9, AROCLOR 1254 (10 OR 30%), Method: PREINCUBATION) was “inactive; negative”, the mutagenic call (Test System: AMES SALMONELLA TYPHIMURIUM, Strain/Indicator: TA1535, Metabolic Activation: RAT, LIVER, S-9, KC 500, Method: PREINCUBATION) was “inactive; negative” and the mutagenic call (Test System: AMES SALMONELLA TYPHIMURIUM, Strain/Indicator: TA1535, Metabolic Activation: S-9, PHENOBARBITAL, Method: STANDARD PLATE) was “inactive; negative”. For the same compound, the mutagenic call (Test System: AMES SALMONELLA TYPHIMURIUM, Strain/Indicator: TA1537, Metabolic Activation: NONE, Method: PREINCUBATION) was “inactive; negative”, the mutagenic call (Test System: AMES SALMONELLA TYPHIMURIUM, Strain/Indicator: TA1537, Metabolic Activation: NONE, Method: STANDARD PLATE) was “inactive; negative” and the mutagenic call (Test System: AMES SALMONELLA TYPHIMURIUM, Strain/Indicator: TA1537, Metabolic Activation: RAT, LIVER, S-9, KC 500, Method: PREINCUBATION) was “inactive; negative”. For the same compound, the mutagenic call (Test System: AMES SALMONELLA TYPHIMURIUM, Strain/Indicator: TA1537, Metabolic Activation: S-9, PHENOBARBITAL, Method: STANDARD PLATE) was “inactive; negative”, the mutagenic call (Test System: AMES SALMONELLA TYPHIMURIUM, Strain/Indicator: TA1538, Metabolic Activation: NONE, Method: PREINCUBATION) was “inactive; negative” and the mutagenic call (Test System: AMES SALMONELLA TYPHIMURIUM, Strain/Indicator: TA1538, Metabolic Activation: RAT, LIVER, S-9, KC 500, Method: PREINCUBATION) was “inactive; negative”. The mutagenic call (Test System: E. COLI, Strain/Indicator: WP2 UVRA, Metabolic Activation: NONE, Method: PREINCUBATION) was “inactive; negative”, the mutagenic call (Test System: E. COLI, Strain/Indicator: WP2 UVRA, Metabolic Activation: NONE, Method: STANDARD PLATE) was “inactive; negative” and the mutagenic call (Test System: E. COLI, Strain/Indicator: WP2 UVRA, Metabolic Activation: RAT, LIVER, S-9, KC 500, Method: PREINCUBATION) was “inactive; negative”. The mutagenic call (Test System: E. COLI, Strain/Indicator: WP2 UVRA, Metabolic Activation: S-9, PHENOBARBITAL, Method: STANDARD PLATE) was “inactive; negative”.
In the case of `CC(C)=C[C@H]1[C@@H](C(=O)OCc2coc(Cc3ccccc3)c2)C1(C)C`, the mutagenic call [2] was “inactive; negative”, the mutagenic call (Test System: AMES SALMONELLA TYPHIMURIUM, Strain/Indicator: TA98, Metabolic Activation: RAT, LIVER, S-9, AROCLOR 1254, Method: STANDARD PLATE) was “inactive; negative” and the mutagenic call (Test System: AMES SALMONELLA TYPHIMURIUM, Strain/Indicator: TA100, Metabolic Activation: RAT, LIVER, S-9, AROCLOR 1254, Method: STANDARD PLATE) was “inactive; negative”. The mutagenic call (Test System: CHINESE HAMSTER V-79, Strain/Indicator: V-79/6-THIOGUANINE, Metabolic Activation: NONE, Method: STANDARD PLATE) was “inactive; negative”, the mutagenic call (Test System: CHINESE HAMSTER V-79, Strain/Indicator: V-79/6-THIOGUANINE, Metabolic Activation: RAT HEPATOCYTES, Method: STANDARD PLATE) was “inactive; negative” and the mutagenic call (Test System: CHINESE HAMSTER V-79, Strain/Indicator: V-79/OUABAIN, Metabolic Activation: NONE, Method: STANDARD PLATE) was “inactive; negative”. For the same compound, the mutagenic call (Test System: CHINESE HAMSTER V-79, Strain/Indicator: V-79/OUABAIN, Metabolic Activation: RAT HEPATOCYTES, Method: STANDARD PLATE) was “inactive; negative”.
With `Cc1cccc(C(=O)Cl)c1` the mutagenic call [1] was “inactive; negative”, the mutagenic call (Test System: AMES SALMONELLA TYPHIMURIUM, Strain/Indicator: TA98, Metabolic Activation: RAT LIVER S-9, PCB, Method: PREINCUBATION) was “inactive; negative” and the mutagenic call [3] was “inactive; negative”. The mutagenic call (Test System: AMES SALMONELLA TYPHIMURIUM, Strain/Indicator: TA100, Metabolic Activation: RAT LIVER S-9, PCB, Method: PREINCUBATION) was “active; positive”, the mutagenic call (Test System: AMES SALMONELLA TYPHIMURIUM, Strain/Indicator: TA104, Metabolic Activation: NONE, Method: PREINCUBATION) was “active; positive” and the mutagenic call (Test System: AMES SALMONELLA TYPHIMURIUM, Strain/Indicator: TA104, Metabolic Activation: RAT LIVER S-9, PCB, Method: PREINCUBATION) was “active; positive”. The mutagenic call (Test System: E.COLI, Strain/Indicator: WP2 UVRA, Metabolic Activation: NONE, Method: PREINCUBATION) was “active; positive” and the mutagenic call (Test System: E.COLI, Strain/Indicator: WP2 UVRA, Metabolic Activation: RAT LIVER S-9, PCB, Method: PREINCUBATION) was “active; positive”.
In the case of `O=C1OC(O)C(CCl)=C1Cl` (centres undefined), the mutagenic call (Test System: AMES SALMONELLA TYPHIMURIUM, Strain/Indicator: TA97, Metabolic Activation: NONE, Method: STANDARD PLATE) was “active; positive”, the mutagenic call [2] was “active; positive” and the mutagenic call (Test System: AMES SALMONELLA TYPHIMURIUM, Strain/Indicator: TA102, Metabolic Activation: NONE, Method: STANDARD PLATE) was “active; positive”. The mutagenic call [5] was “active; positive”, the mutagenic call (Test System: CHINESE HAMSTER OVARY, Strain/Indicator: CHO-KTL3 (HPRT)/6-THIOGUANINE, Metabolic Activation: NONE) was “active; positive” and the mutagenic call (Test System: UDS RAT HEPATOCYTES, Strain/Indicator: THYMIDINE INCORPORATION, Metabolic Activation: NONE, Method: AUTORADIOGRAPHY) was “active; positive”.
With `C1CC2OC2CCC2OC12` (centres undefined) the mutagenic call [4] was “inactive; negative” and the mutagenic call [5] was “inactive; negative”.
